Here are results for one compound from US10800794B2, “Heterocycle-substituted bicyclic azole pesticides” (priority 2015, dated 2020).

For this data set, the system named is sweetpotato whitefly (Bemisia tabaci (Gennadius)). The data set can be described thus: Test D: control of sweetpotato whitefly through contact and/or systemic means, sprayed cotton plant infested with eggs. The following applies: sprayed at 50 ppm, assessed after 13 days at 28° C. In kind it is in vivo. The protocol:
Test compounds were formulated using a solution containing 10% acetone, 90% water and 300 ppm X-77® Spreader Lo-Foam Formula non-ionic surfactant containing alkylarylpolyoxyethylene, free fatty acids, glycols and isopropanol (Loveland Industries, Inc. Greeley, Colo., USA). The formulated compounds were applied in 1 mL of liquid through a SUJ2 atomizer nozzle with ⅛ JJ custom body (Spraying Systems Co. Wheaton, Ill., USA) positioned 1.27 cm (0.5 inches) above the top of each test unit. Test compounds were sprayed at the rates indicated, and each test was replicated three times.
For evaluating control of the sweetpotato whitefly (Bemisia tabaci (Gennadius)) through contact and/or systemic means, the test unit consisted of a small open container with a 12-14-day-old cotton plant inside. Prior to the spray application, both cotyledons were removed from the plant, leaving one true leaf for the assay. Adult whiteflies were allowed to lay eggs on the plant and then were removed from the test unit. Cotton plants infested with at least 15 eggs were submitted to the test for spraying.
Test compounds were formulated and sprayed at 250 and/or 50 ppm. After spraying, the test units were allowed to dry for 1 hour. […] Each test unit was then visually assessed for insect mortality.

For the compound `CN(C)C(=O)C(C)(C)NC(=O)c1csc2nc(-c3cncc(F)c3)cn12` [Compound 14], the mortality entry is “at least 80%”.
